Literature values as cited in paper PMC12051155 (Molecular Metabolism, 2025).

CCCCCCCCCCCCCCCC(=O)N[C@@H](CCC(=O)NCCCC[C@H](NC(=O)[C@H](C)NC(=O)[C@H](C)NC(=O)[C@H](CCC(N)=O)NC(=O)CNC(=O)[C@H](CCC(=O)O)NC(=O)[C@H](CC(C)C)NC(=O)[C@H](Cc1ccc(O)cc1)NC(=O)[C@H](CO)NC(=O)[C@H](CO)NC(=O)[C@@H](NC(=O)[C@H](CC(=O)O)NC(=O)[C@H](CO)NC(=O)[C@@H](NC(=O)[C@H](Cc1ccccc1)NC(=O)[C@@H](NC(=O)CNC(=O)[C@H](CCC(=O)O)NC(=O)[C@H](C)NC(=O)[C@@H](N)Cc1cnc[nH]1)[C@@H](C)O)[C@@H](C)O)C(C)C)C(=O)N[C@@H](CCC(=O)O)C(=O)N[C@@H](Cc1ccccc1)C(=O)N[C@H](C(=O)N[C@@H](C)C(=O)N[C@@H](Cc1c[nH]c2ccccc12)C(=O)N[C@@H](CC(C)C)C(=O)N[C@H](C(=O)N[C@@H](CCCNC(=N)N)C(=O)NCC(=O)N[C@@H](CCCNC(=N)N)C(=O)NCC(=O)O)C(C)C)[C@@H](C)CC)C(=O)O [liraglutide]
half-life in humans: 13 h
